Laboratory results as given in patent publication US9192635B2.

Assay: Hydrogen peroxide retention after desiccation and rehydration (peroxide check strips)
Format: physicochemical
Conditions: 1-10 g extract in 20 ml 35% hydrogen peroxide, heated at 80° C. to 5 ml, rehydrated; colorimetric strips

Oc1ccc(C=Cc2cc(O)cc(O)c2)cc1 [resveratrol, Resveratrol]
peroxide retention capability: relatively less ability to form stable perhydrates
